Broadly, the EC50 is the midpoint of the concentration-response curve. What is called viability is the share of living cells, or the viability signal relative to a control. As usually defined, the melting point is the temperature of the solid-liquid transition.

One data set deals with Lucena-1 (K562/VCR). Briefly: cells. The data set is classed as cell-based, human. Particulars: for RR (relative resistance) Lucena-1: (EC50 MDR cells)/(EC50 parental cells), Lucena-1/K562; for EC50: Homo sapiens, Lucena 1, 72 h, read-out: EC50 Lucena-1. Summed up: (§1)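 K562 and its MDR sublines Lucena-1 (maintained in 60 nM VCR) and FEPS (500 nM DNR) seeded at 2 × 10^4 cells/mL in RPMI-1640 with 10% FBS, treated with compounds at 1–100 μM (0.5% DMSO controls). MTT 0.5 g/L for 3 h, A570 read; EC50 by logarithmic regression, three independent experiments.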

The subject of a further data set is K562. In words: MTT cytotoxicity to CML cell line K562. The class given is cell-based. Particulars: Homo sapiens, 72 h. The method, then:
(§2) The CML cell lines K562, Lucena-1 (K562/VCR), and FEPS (K562/DNR) were cultured in RPMI-1640 medium supplemented with 25 mM HEPES and 2 g L^−1 sodium bicarbonate adjusted to pH 7.4 with NaOH, 100 U penicillin and […] streptomycin. All media were supplemented with 10% FBS. Dr. Vivian M. Rumjanek (Instituto de Bioquímica Médica, UFRJ, Brazil) kindly donated Lucena-1 and FEPS cells. Briefly, K562 cells were exposed to increasing concentrations of the chemotherapeutic drugs vincristine sulfate (VCR) and daunorubicin hydrochloride (DNR) (both from Sigma-Aldrich), as described previously. Lucena-1 (K562/VCR) and FEPS (K562/DNR) cells were cultured in the presence of either 60 nM VCR or 500 nM DNR to maintain the MDR phenotypes. For subcultures, cells were harvested every three days followed by washing with cold FBS, and a final concentration of 2 × 10^4 cells mL^−1 was maintained at 37 °C in 5% CO2.
(§3) Cell viability was determined by the 3-(4,5-dimethylthiazol-2-yl)-2,5-diphenyltetrazolium (MTT) colorimetric assay. CML cells (2 × 10^4 cells·mL^−1) were incubated for 72 h at 37 °C, followed by treatment with compounds at a range of concentrations (100–1 μM). Negative controls were prepared with 0.5% DMSO. An MTT salt solution was added to each well to a final concentration of 0.5 g·L^−1, and plates were incubated at 37 °C in 5% CO2 for 3 h. After centrifugation, 200 μL DMSO was added to dissolve the dark-blue formazan crystals formed by MTT reduction. Absorbance was measured on a microplate reader at 570 nm, which is directly proportional to formazan contents and indicative of living cells.
(§4) The percent cell or parasite viability was calculated by the formula: % viability = [(A − P)/(N − P)] × 100, A = absorbance of specific well, P = positive control, N = negative control. Determination of half-maximal effective concentrations (EC50), calculated by logarithmic regression, and significance analysis (p < 0.05), using ANOVA and Dunnett’s test, by GraphPad Prism 7.0 software. The results are expressed as the mean and standard deviation (SD) of three independent experiments.

The subject of a further data set is FEPS (K562/DNR). In words: MTT cytotoxicity to MDR CML cell line FEPS. The data set is classed as cell-based, human. Particulars: for RR (relative resistance) FEPS: (EC50 MDR cells)/(EC50 parental cells), FEPS/K562; for EC50: Homo sapiens, K562, 72 h, MTT. An outline of the steps:
as §1

For a further data set, the system named is RAW 264.7 cells. Briefly: Cytotoxicity to RAW 264.7 cells (MTT). The data set is classed as cell-based, murine. Particulars: Mus musculus, RAW264.7; 48 h, MTT; read-out: EC50 RAW. The procedure: (§5) LLC-MK2 kidney fibroblasts (ATCC) and RAW 264.7 macrophages (ATCC) were cultivated in culture flasks in complete DMEM with 5% FBS at 37 °C in 5% CO2. The LLC-MK2 cell monolayer was detached by treatment with trypsin-EDTA 0.05% for 5 min at 37 °C. The RAW cell monolayer was detached mechanically. In both cases, the cells were centrifuged at 480× g for 6 min and resuspended in complete DMEM with 5% FBS, and the cell density was determined by counting with trypan-blue dye exclusion on Neubauer chambers before use.
RAW 264.7 cells were seeded in a 96-well microplate (2.0 × 10^4 cells per well) in complete DMEM with 5% FBS (120 µL per well). After incubation for 24 h at 37 °C in 5% CO2, the medium was renewed, and compounds were added at a range of concentrations in triplicate (100–1 μM). Untreated cells and cells treated with DMEM and 10% DMSO were used as negative and positive controls, respectively. Vehicle control containing DMEM and 0.3% DMSO was maintained for comparison. After incubation for 48 h at 37 °C in 5% CO2, the medium was renewed, and an MTT solution in PBS was added (3.0 mM, 20 µL per well). After incubation for 2 h at 37 °C in 5% CO2, the supernatant was removed, and MTT formazan was dissolved in DMSO (150 µL per well). Absorbance was measured using a microplate reader at 570 nm.
as §4

Another data set relates to LLC-MK2 cells. Briefly: Cytotoxicity to LLC-MK2 host cells (MTT). The class given is cell-based. Particulars: Macaca mulatta, LLC-MK2; 120 h, MTT. The procedure: as §5
(§6) LLC-MK2 cells were seeded in a 96-well microplate (1.0 × 10^4 cells per well) in complete DMEM with 5% FBS (120 µL per well). After incubation for 24 h at 37 °C in 5% CO2, the medium was renewed, and compounds were added at a range of concentrations in triplicate (50 μM or 100–1 μM). Untreated cells and cells treated with DMEM and 10% DMSO were used as negative and positive controls, respectively. Vehicle control containing DMEM and 0.3% DMSO was maintained for comparison. After incubation for 120 h at 37 °C in 5% CO2, the medium was renewed, and MTT salt solution in PBS was added (3.0 mM, 20 µL per well). After incubation for 2 h at 37 °C in 5% CO2, the supernatant was removed, and MTT formazan was dissolved in DMSO (150 µL per well). Absorbance was measured using a microplate reader at 570 nm.
as §4

Data set [1] is described as follows: Cytotoxicity to LLC-MK2 host cells (MTT). The class given is cell-based. Particulars: rhesus monkey, LLC-MK2 cells (kidney fibroblasts); for viability at 120 h, 50 µM: screening at 50 μM. The procedure:
as §5, §6, §4

The subject of data set [2] is drug-sensitive and drug-resistant chronic myeloid leukemia cell lines (K562, Lucena-1, FEPS). In words: MTT cytotoxicity to CML cell lines, statements over all lines. Particulars: Homo sapiens, K562-Lucena 1, statement over K562, Lucena-1 and FEPS; read-out: EC50 against CML cell lines. The data set is classed as cell-based. The procedure: as §2, §3
The nature of data set [3]: Cytotoxicity to BALB/c mouse total splenocytes (MTT). The class given is cell-based. Particulars: male; for viability at 48 h, 100 µM / viability at 48 h, 0.4 µM / viability at 48 h, 1 µM / viability at 48 h, 2.6 µM / viability at 48 h, 6.4 µM / viability at 48 h, 16 µM / viability at 48 h, 40 µM: total splenocytes (primary); for EC50 at 48 h: primary total splenocytes, MTT, read-out: EC50 murine splenocytes. The procedure:
BALB/c mouse total splenocytes were harvested from male mice between 6–8 weeks old. After euthanasia, the spleens were removed and macerated in DMEM. After centrifugation, the cells were treated with hemolytic ACK buffer at 37 °C for 5 min. […] After incubation for 48 h at 37 °C in 5% CO2, cell viability was determined after the addition of 20 µL per well of a solution containing MTT salt (3.0 mM) and phenazine metasulphate (0.72 mM). After further incubation for 1 h at 37 °C, the medium was removed, and DMSO was added to dissolve the dark-blue formazan crystals formed by MTT reduction. Absorbance was measured on a microplate reader at 570 nm.
as §4

The mark [4] stands for this setting: 100 μM, 48 h, compared to the untreated control (Table S1).
Where [5] appears, read: Table S2 dose-dependent, 100 µM.

On to `COc1cc(/C=C/c2nc(-c3ccccc3)no2)cc(OC)c1OC` [Compound 12, (E)-3-phenyl-5-[2-(3,4,5-trimethoxyphenyl)vinyl]-1,2,4-oxadiazole], for which the “RR (relative resistance) Lucena-1” value in the data set on Lucena-1 (K562/VCR) is recorded as 2.42. In addition, the concentration for a half-maximal effect (EC50) in the data set with Lucena-1 (K562/VCR) was 43.5 ± 1.8 µM; with K562, 18 ± 0.9 µM; in the data set on FEPS (K562/DNR) it was 25.5 ± 4.9 µM; in the data set on RAW 264.7 cells, over 100 µM; in the data set on LLC-MK2 cells, over 100 µM; in [2], under 20 µM. The “RR (relative resistance) FEPS” value in the data set with FEPS (K562/DNR) is given as 1.42. Also, the viability at 120 h, 50 µM in data set [1] turned out to be 88.2 ± 5.2%. In addition, the viability at 48 h, 100 µM in [3] (setting [4]) was found to be 72.1 ± 6.5%.

As for `C(=C\c1nc(-c2ccccc2)no1)/c1cccnc1` [Compound 15, (E)-3-phenyl-5-[2-pyridyn-3-yl-vinyl]-1,2,4-oxadiazole], the melting point was 107 to 110 °C. In the data set on Lucena-1 (K562/VCR), the “RR (relative resistance) Lucena-1” value is reported as 0.97 and the 50% effective concentration (EC50) was 26.7 ± 7.2 µM. The molecule further returned a half-maximal effective concentration (EC50) in the data set on K562 of 27.6 ± 5.8 µM. Further, in the data set on FEPS (K562/DNR), the “RR (relative resistance) FEPS” value was 0.68 and the EC50 worked out at 18.7 ± 3.9 µM. The EC50 in the data set on LLC-MK2 cells was over 100 µM. Also, the concentration giving a half-maximal response (EC50) in data set [2] was under 20 µM. In addition, the EC50 at 48 h in data set [3] (48 h) turned out to be 52.2 ± 4.51 µM. In data set [3] (Table S2 dose-dependent), this molecule displayed a viability at 48 h, 0.4 µM of 94.5 ± 9.1%; a viability at 48 h, 1 µM of 92.7 ± 4.1%; a viability at 48 h, 2.6 µM of 86.3 ± 7.5%; a viability at 48 h, 6.4 µM of 90.2 ± 10.7%. In [3] (Table S2 dose-dependent), this molecule registered a viability at 48 h, 16 µM of 77.7 ± 4.8% and a viability at 48 h, 40 µM of 63.1 ± 5.8%. The viability at 48 h, 100 µM in [3] (setting [5]) came to 29.5 ± 1.6%.

The molecule `COc1cc(/C=C/c2nc(-c3cc(OC)c(OC)c(OC)c3)no2)cc(OC)c1OC` [Compound 23, (E)-3-(3,4,5-trimethoxyphenyl)-5-[2-(3,4,5-trimethoxyphenyl)-vinyl]-1,2,4-oxadiazole] showed a melting point of 118 to 120 °C. In addition, in the data set with Lucena-1 (K562/VCR), the “RR (relative resistance) Lucena-1” value came to 0.94 and the concentration giving a half-maximal response (EC50) was 12.4 ± 2.5 µM. In the data set with K562, this molecule showed an EC50 of 13.2 ± 2.9 µM. Moreover, in the data set on FEPS (K562/DNR), the “RR (relative resistance) FEPS” value came out at 0.42 and the 50% effective concentration (EC50) came out at 5.5 ± 0.6 µM. Moreover, in the data set on RAW 264.7 cells, the concentration for a half-maximal effect (EC50) was over 100 µM. In the data set with LLC-MK2 cells, this molecule yielded an EC50 of 78 ± 4.7 µM. In addition, the viability at 120 h, 1 µM in data set [1] (host cells at 1.0 μM, read-out: host cell viability) was 93 ± 4.4%. In addition, the viability at 120 h, 50 µM in data set [1] worked out at 64.1 ± 4.4%. In addition, in [3] (48 h), the EC50 at 48 h is 33.3 ± 2.83 µM. In addition, in [3] (Table S2 dose-dependent), the viability at 48 h, 0.4 µM worked out at 97.3 ± 3.3%; the viability at 48 h, 1 µM came out at 94.9 ± 4%; the viability at 48 h, 2.6 µM came to 95 ± 4.4%; the viability at 48 h, 6.4 µM turned out to be 84.6 ± 6.7%. Besides, in data set [3] (Table S2 dose-dependent), the viability at 48 h, 16 µM is 69.5 ± 6.4% and the viability at 48 h, 40 µM amounted to 43.4 ± 4.2%. This molecule also displayed a viability at 48 h, 100 µM in data set [3] (setting [5]) of 14.1 ± 3.5%.

Consider `COc1cc(-c2noc(/C=C/c3ccc4c(c3)OCO4)n2)cc(OC)c1OC` [Compound 24, (E)-3-(3,4,5-trimethoxyphenyl)-5-[2-(3,4-methylenedioxy-phenyl)vinyl]-1,2,4-oxadiazole], for which the melting point is 177 to 180 °C. For the same molecule, in the data set on Lucena-1 (K562/VCR), the “RR (relative resistance) Lucena-1” value turned out to be 1.37 and the EC50 was 82.6 ± 10.8 µM. Further, the response with K562 was half-maximal at 60.4 ± 4.1 µM (EC50). In the data set with FEPS (K562/DNR), the “RR (relative resistance) FEPS” value came to 0.15 and the EC50 was 8.9 ± 0.3 µM. Further, the 50% effective concentration (EC50) in the data set on RAW 264.7 cells turned out to be 58.8 ± 6.1 µM. The concentration for a half-maximal effect (EC50) with LLC-MK2 cells amounted to 53.4 ± 2.6 µM. This molecule also had a viability at 120 h, 50 µM in [1] of 55.9 ± 9.3%. The EC50 in data set [2] was under 20 µM. The viability at 48 h, 100 µM in [3] (setting [4]) was 72.8 ± 4.2%.

The values above are taken from publication PMC9787607, “A Novel Protocol for the Synthesis of 1,2,4-Oxadiazoles Active against Trypanosomatids and Drug-Resistant Leukemia Cell Lines” (Tropical Medicine and Infectious Disease, 2022).
